Laboratory results from patent US10208023B2, “Heterocyclic inhibitors of the sodium channel” (priority 2013, dated 2019).
Like-named read-outs stand apart in the source and are kept apart here.

Columns and labels:
formalin test in rats = assay: Formalin test in rats (automated flinch detection); format: in vivo; conditions: rat; for Phase 1 paw flinches: Phase I (0-9 mins); for Total Phase 2 paw flinches: Phase II (10-60 mins); for Phase 2a paw flinches: Phase IIA (10-40 mins); for Phase 2b paw flinches: Phase IIB (41-60 mins)
Description: The formalin test in rats was performed as previously described (McNamara, 2007. Proc. Natl. Acad. Sci., vol 104, page 13525) using an automated flinch-detecting system (T. Yaksh, University of California at San Diego, La Jolla, Calif.). On the day of testing, a small metal band (0.5 g) was loosely placed around the right hind paw of a male Sprague-Dawley rat (average weight, ˜250 g). The rats were allowed to acclimate to a Plexiglas chamber for at least 30 min before testing. Formalin was then injected (50 μl of 2.5% formalin, diluted in saline) into the dorsal surface of the right hind paw of the rat, and the animal was put into a chamber of the automated formalin apparatus where movement of the formalin-injected paw was recorded. The number of paw flinches per minute was tallied for the next 60 minutes. The time interval phases were defined as follows: Phase I (0-9 mins), Phase II (10-60 mins), Phase IIA (10-40 mins), and Phase IIB (41-60 mins). The following compounds were administered 1 hour prior to formalin administration. Compound 52 from Table 1 was administered by oral gavage in 4% DMSO, 10% Solutol, 86% H2O. Gabapentin was administered subcutaneously in 0.9% NaCl (aq). 4.

hNav1.7 = hNav1.7 (Homo sapiens (Human), UniProt Q15858); assay: Nav1.7 potency, Patchliner automated patch clamp; format: cell-based; conditions: automated patchclamp
Description: The generation of a HEK 293F cell line stably expressing human Nav1.7/Navβ1 was achieved by co-transfecting human SCN9A and human SCN1B cDNAs, subcloned into plasmid vectors, utilizing standard transfection techniques. Clones were selected using appropriate selection agents (0.3 mg/mL Zeocin and 0.8 mg/mL Geneticin) and maintained in Dulbecco's Modified Eagle medium, 10% fetal bovine serum, 1% non-essential amino acids to ˜80% confluence at 37° C. in a humidified incubator with 95% atmosphere and 5% CO2.
In some cases, the potency of compounds was measured using either the Patchliner automated patch clamp platform (Nanion) or manual patch clamp techniques. Both approaches allowed the compounds to be characterized based upon the ability of a compound to modulate use- and/or state-dependence. The potency data is tabulated in Table 3 and is represented by eight data fields. The first four fields represent potency data measured with the Patchliner automated platform under varying use- and state-dependent electrophysiology protocols similar to the Patch express protocols detailed above. The first data column describes the potency of compounds when the Nav1.7 channel is being repetitively activated at a 7 Hz hyperpolarization frequency (Table 3: hNav1.7: IC50 of inward current block at 7 Hz, Automated patchclamp). The second data column represents the potency at which 50% of the initial hyperpolarization pulse is inhibited by the compounds (Table 3: hNav1.7: IC50 of P1 block, Automated patchclamp). The third data column details the potency of compounds in their ability to block 50% of Nav1.7 channels when these channels are induced into the slow inactivated state (Table 3: hNav1.7: IC50 of slow inactivation block, Automated patchclamp). […] The next three data fields describe the data generated from manual patchclamp electrophysiology measurements using similar methods to those employed for automated patchclamp studies. […] The last column characterizes the state-dependence of compound inhibition. […]

[1] = 3 mg/kg oral gavage 1 hour prior to formalin
[2] = 10 mg/kg oral gavage 1 hour prior to formalin
[3] = 30 mg/kg oral gavage 1 hour prior to formalin
[4] = 100 mg/kg SC 1 hour prior to formalin

Chain of hNav1.7 (Q15858 whole entry): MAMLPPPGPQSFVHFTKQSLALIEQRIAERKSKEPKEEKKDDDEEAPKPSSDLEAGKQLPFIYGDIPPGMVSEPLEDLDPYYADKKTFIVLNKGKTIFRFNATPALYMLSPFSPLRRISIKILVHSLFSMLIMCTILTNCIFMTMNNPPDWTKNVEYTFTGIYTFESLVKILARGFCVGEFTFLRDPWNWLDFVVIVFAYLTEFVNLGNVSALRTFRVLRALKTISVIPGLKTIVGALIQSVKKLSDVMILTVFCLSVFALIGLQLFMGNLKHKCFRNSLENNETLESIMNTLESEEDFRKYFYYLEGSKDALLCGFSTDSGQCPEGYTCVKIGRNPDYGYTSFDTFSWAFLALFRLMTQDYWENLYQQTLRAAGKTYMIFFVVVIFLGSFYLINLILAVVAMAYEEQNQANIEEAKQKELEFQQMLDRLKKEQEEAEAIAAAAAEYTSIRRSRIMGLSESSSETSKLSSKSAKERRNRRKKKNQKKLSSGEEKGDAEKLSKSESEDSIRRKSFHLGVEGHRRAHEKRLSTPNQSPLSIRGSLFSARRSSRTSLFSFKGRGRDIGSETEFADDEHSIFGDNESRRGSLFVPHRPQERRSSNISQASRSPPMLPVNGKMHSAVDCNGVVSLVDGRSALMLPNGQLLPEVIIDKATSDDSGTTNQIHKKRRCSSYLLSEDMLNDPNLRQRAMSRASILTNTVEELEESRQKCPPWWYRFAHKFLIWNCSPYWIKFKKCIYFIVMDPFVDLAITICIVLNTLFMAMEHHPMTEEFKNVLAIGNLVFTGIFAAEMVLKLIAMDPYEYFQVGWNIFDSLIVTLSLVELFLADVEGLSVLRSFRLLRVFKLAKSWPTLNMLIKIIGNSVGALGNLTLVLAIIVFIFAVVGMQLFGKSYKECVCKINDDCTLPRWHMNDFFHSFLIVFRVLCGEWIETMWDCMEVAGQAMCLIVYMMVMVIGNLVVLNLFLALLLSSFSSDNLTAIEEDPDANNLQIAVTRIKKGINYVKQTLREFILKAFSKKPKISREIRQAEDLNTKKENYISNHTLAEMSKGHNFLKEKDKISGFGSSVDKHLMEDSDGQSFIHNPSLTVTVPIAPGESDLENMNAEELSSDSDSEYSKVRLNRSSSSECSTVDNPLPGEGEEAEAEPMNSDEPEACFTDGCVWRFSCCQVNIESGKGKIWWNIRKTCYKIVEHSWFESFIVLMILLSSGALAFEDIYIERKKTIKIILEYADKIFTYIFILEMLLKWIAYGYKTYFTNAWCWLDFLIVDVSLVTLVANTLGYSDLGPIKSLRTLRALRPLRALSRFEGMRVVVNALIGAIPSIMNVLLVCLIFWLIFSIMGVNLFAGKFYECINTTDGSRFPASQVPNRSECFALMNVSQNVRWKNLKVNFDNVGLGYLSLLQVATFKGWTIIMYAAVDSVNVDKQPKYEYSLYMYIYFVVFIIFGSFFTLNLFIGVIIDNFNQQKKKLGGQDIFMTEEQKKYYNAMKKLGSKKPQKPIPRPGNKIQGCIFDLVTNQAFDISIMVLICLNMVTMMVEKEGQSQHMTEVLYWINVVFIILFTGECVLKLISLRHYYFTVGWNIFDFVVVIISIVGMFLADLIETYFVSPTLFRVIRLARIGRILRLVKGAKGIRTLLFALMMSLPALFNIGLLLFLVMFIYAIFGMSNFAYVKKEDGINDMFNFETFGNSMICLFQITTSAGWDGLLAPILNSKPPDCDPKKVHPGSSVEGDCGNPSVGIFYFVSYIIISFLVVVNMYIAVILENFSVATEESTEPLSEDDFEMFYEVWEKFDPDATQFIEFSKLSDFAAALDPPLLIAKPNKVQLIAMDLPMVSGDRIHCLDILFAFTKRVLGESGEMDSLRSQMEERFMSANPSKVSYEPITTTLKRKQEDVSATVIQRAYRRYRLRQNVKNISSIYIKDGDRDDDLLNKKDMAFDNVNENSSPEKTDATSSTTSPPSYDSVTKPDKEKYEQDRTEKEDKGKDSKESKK
Chain of hNav1.7 (Q07699 19-218 partner): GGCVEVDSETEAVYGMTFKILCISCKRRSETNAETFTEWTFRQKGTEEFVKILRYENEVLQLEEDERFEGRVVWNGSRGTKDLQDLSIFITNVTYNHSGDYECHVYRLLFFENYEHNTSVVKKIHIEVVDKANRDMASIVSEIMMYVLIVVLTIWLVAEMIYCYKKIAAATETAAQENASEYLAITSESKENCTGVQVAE

For NC1(c2nc3cc(C(F)(F)F)cc(C(F)(F)F)c3[nH]2)Cc2ccccc2C1 [Compound 52, 2-(4,6-bis(trifluoromethyl)-1H-benzo[d]imidazol-2-yl)-2,3-dihydro-1H-inden-2-amine], which “Phase 1 paw flinches” value (formalin test in rats; [1]) is on record?
The value was 345 ± 75.

What about the “Total Phase 2 paw flinches” value (formalin test in rats; [1]) of the same compound?
Its value is 1365 ± 174.

What about the “Phase 2a paw flinches” value (formalin test in rats; [1]) of the same compound?
Its value is 988 ± 139.

What about the “Phase 2b paw flinches” value (formalin test in rats; [1]) of the same compound?
The value was 377 ± 79.

What about the “Phase 1 paw flinches” value (formalin test in rats; [2]) of the same compound?
The value was 315 ± 58.

And the “Total Phase 2 paw flinches” value (formalin test in rats; [2])?
Its value is 962 ± 189.

And the “Phase 2a paw flinches” value (formalin test in rats; [2])?
The value was 758 ± 199.

And the “Phase 2b paw flinches” value (formalin test in rats; [2])?
Its value is 204 ± 66.

And the “Phase 1 paw flinches” value (formalin test in rats; [3])?
The value was 333 ± 75.

And the “Total Phase 2 paw flinches” value (formalin test in rats; [3])?
Its value is 853 ± 259.

And the “Phase 2a paw flinches” value (formalin test in rats; [3])?
The value was 706 ± 261.

And the “Phase 2b paw flinches” value (formalin test in rats; [3])?
Its value is 147 ± 101.

What does the source list for N[C@H](Cc1cccc(C(F)(F)F)c1)C(=O)NCc1nc2c(C(F)(F)F)cc(C(F)(F)F)cc2[nH]1 [Compound 75, (R)-2-amino-N-((4,6-bis(trifluoromethyl)-1H-benzo[d]imidazol-2-yl)methyl)-3-(3-(trifluoromethyl)phenyl) propanamide]?
IC50 (hNav1.7; 7 Hz, read-out: Nav1.7 IC50 INWARD CURRENT BLOCK (nM) (7 Hz, Automated Patchclamp)): 15000 nM; IC50 (hNav1.7; initial pulse (P1), read-out: Nav1.7 IC50 P1 BLOCK (nM) (Automated Patchclamp)): 15000 nM; IC50 (hNav1.7; slow inactivated state, read-out: Nav1.7 IC50 SLOW INACTIVATION BLOCK (nM) (Automated Patchclamp)): 15000 nM

With NCC1(CC(=O)O)CCCCC1 [Gabapentin, reference compound] as the compound, how does the “Phase 1 paw flinches” value (formalin test in rats; [4]) read?
Its value is 320 ± 58.

And the “Total Phase 2 paw flinches” value (formalin test in rats; [4])?
Its value is 562 ± 213.

And the “Phase 2a paw flinches” value (formalin test in rats; [4])?
The value was 486 ± 202.

And the “Phase 2b paw flinches” value (formalin test in rats; [4])?
The value was 77 ± 47.
